# How the values were obtained:
# [1] = target: WT EGFR (Homo sapiens, UniProt P00533); conditions: at clinically relevant efficacious concentrations; cited from earlier work
# [2] = test system: EGFR mutant (L858R, ex19del and T790M) cancer models; conditions: in vitro and in vivo; cited from earlier work
# [3] = test system: PD-L1 (CD274) on tumor cells; experiment: Effects of targeted agents on PD-L1 modulation (real time PCR and flow cytometry), summary; assay type: cell-based, human
# Description: This example evaluates the effects of selected therapeutic agents (e.g., INC280, MEK162, LGX818 and LDK378) on PD-L1 (CD274) modulation. Selected therapeutic agents were examined by real time PCR and flow cytometry on PD-L1 levels.
# [4] = test system: PD-L1 (CD274) mRNA in Hs.746.T tumor xenograft; experiment: TaqMan RT PCR of PD-L1 mRNA in Hs.746.T tumor xenograft; assay type: in vivo, human; conditions: Hs.746.T tumor (gastric cancer, cMET amplification & mutation) xenograft, FIG. 2
# Experimental: (§1) TaqMan RT PCR assays were developed to detect changes of expression levels of PD-L1 (CD274) in cell lines and xenograft tumors. mRNA was isolated from frozen cell pellets or tumor fragments using the Qiagen RNeasy Mini kit. Isolated RNA was frozen at −80° C. RNA quality was checked and RNA was quantified using a 2100 Agilent Bioanalyzer following the protocol for the Agilent RNA 6000 Nano Kit. cDNA was prepared using a High Capacity RNA- to cDNA Kit (Applied Biosystems). Real-time PCR reactions were carried out in 20 μl total volume, including 10 μl of Universal PCR master mix (Applied Biosystems), 1 μl of human PD-L1 (CD274) probe/primer set (Applied Biosystems), and 8 μl of cDNA. Each sample was run in triplicate. The amount of cDNA produced from 25-50 ng of RNA in the reverse transcription reaction was used in each PCR reaction. Due to difference in mRNA levels between PD-L1 and GAPDH, the two real-time PCR reactions were done in separate tubes using same amount of cDNA. The real-time PCR reaction was run on the C1000 Thermal Cycle (BioRad) with the cycle program as follows: a 10 minute incubation at 95° C. followed by 40 cycles of 95° C. for 15 seconds and 60° C. for 1 minute. After the reaction was complete, the PD-L1 average Ct was normalized relative to each Ct value from the GAPDH reference reaction. Each normalized logarithmic value was then converted into a linear value.
# [5] = test system: PD-L1 (CD274) surface expression in EBC-1 cells; experiment: Flow cytometry of PD-L1 surface expression in EBC-1 cells in vitro; assay type: cell-based, human; conditions: EBC-1 cells (NSCLC with cMET amplification), FIG. 1
# Experimental: PD-L1 (CD274) expression was analyzed in cancer cell lines treated with INC280. Cells were obtained from ATCC and cultured in vitro following ATCC directions. The cell lines used were previously characterized by the Cancer Cell Line Encyclopedia Project (http://www.broadinstitute.org/ccle/home). Cells plated in six-well culture plates were treated with the INC280 at different concentrations (10 nM, 100 nM, and 1000 nM) for 24, 48 and 72 hours. Equal amount of vehicle (DMSO) was used as a control. Cells were washed with PBS and then harvested using a cell scraper. For each reaction, 0.5-1×10^6 cells were stained with 20 μL of anti-human monoclonal PD-L1-PE antibody, clone M1H1 (BD) for 30-60 minutes at 4° C. Cells were washed twice and data was acquired using a Canto II with FACSDiva software (BD Bioscience). Data analysis was performed using FlowJo software (Tree Star). Mean fluorescence intensity (MFI) was determined by gating on single cells. Unstained cells were used as a gating control.
# [6] = test system: PD-L1 (CD274) mRNA in H3122 cells; experiment: TaqMan RT PCR of PD-L1 mRNA in H3122 cells in vitro; assay type: cell-based, human; conditions: H3122 (NSCLC with ALK translocation) in vitro, FIG. 3
# Experimental: (§2) TaqMan RT PCR assays were developed to detect changes of expression levels of PD-L1 (CD274) in cell lines and xenograft tumors. mRNA was isolated from frozen cell pellets or tumor fragments using the Qiagen RNeasy Mini kit. Isolated RNA was frozen at −80° C. RNA quality was checked and RNA was quantified using a 2100 Agilent Bioanalyzer following the protocol for the Agilent RNA 6000 Nano Kit. cDNA was prepared using a High Capacity RNA- to cDNA Kit (Applied Biosystems).
# as §1, with “Real-time” for “TaqMan RT PCR assays were developed to detect changes of expression levels of PD-L1 (CD274) in cell lines and xenograft tumors. mRNA was isolated from frozen cell pellets or tumor fragments using the Qiagen RNeasy Mini kit. Isolated RNA was frozen at −80° C. RNA quality was checked and RNA was quantified using a 2100 Agilent Bioanalyzer following the protocol for the Agilent RNA 6000 Nano Kit. cDNA was prepared using a High Capacity RNA- to cDNA Kit (Applied Biosystems). Real-time”
# [7] = test system: PD-L1 (CD274) mRNA in LOXIMV1 tumors; experiment: TaqMan RT PCR of PD-L1 mRNA in LOXIMV1 tumor xenograft model; assay type: in vivo, human; conditions: tumor xenograft model bearing LOXIMV1 (BRAF mutant melanoma), FIG. 4
# Experimental: as §2
# as §1, with “Real-time” for “TaqMan RT PCR assays were developed to detect changes of expression levels of PD-L1 (CD274) in cell lines and xenograft tumors. mRNA was isolated from frozen cell pellets or tumor fragments using the Qiagen RNeasy Mini kit. Isolated RNA was frozen at −80° C. RNA quality was checked and RNA was quantified using a 2100 Agilent Bioanalyzer following the protocol for the Agilent RNA 6000 Nano Kit. cDNA was prepared using a High Capacity RNA- to cDNA Kit (Applied Biosystems). Real-time”
# [8] = test system: PD-L1 (CD274) mRNA in HEYA8 tumors; experiment: TaqMan RT PCR of PD-L1 mRNA in HEYA8 tumor xenograft model; assay type: in vivo, human; conditions: tumor xenograft model bearing HEYA8 (KRAS mutant ovarian cancer), FIG. 5
# Experimental: as §2
# as §1, with “Real-time” for “TaqMan RT PCR assays were developed to detect changes of expression levels of PD-L1 (CD274) in cell lines and xenograft tumors. mRNA was isolated from frozen cell pellets or tumor fragments using the Qiagen RNeasy Mini kit. Isolated RNA was frozen at −80° C. RNA quality was checked and RNA was quantified using a 2100 Agilent Bioanalyzer following the protocol for the Agilent RNA 6000 Nano Kit. cDNA was prepared using a High Capacity RNA- to cDNA Kit (Applied Biosystems). Real-time”
# Sequence of WT EGFR (P00533 25-1210): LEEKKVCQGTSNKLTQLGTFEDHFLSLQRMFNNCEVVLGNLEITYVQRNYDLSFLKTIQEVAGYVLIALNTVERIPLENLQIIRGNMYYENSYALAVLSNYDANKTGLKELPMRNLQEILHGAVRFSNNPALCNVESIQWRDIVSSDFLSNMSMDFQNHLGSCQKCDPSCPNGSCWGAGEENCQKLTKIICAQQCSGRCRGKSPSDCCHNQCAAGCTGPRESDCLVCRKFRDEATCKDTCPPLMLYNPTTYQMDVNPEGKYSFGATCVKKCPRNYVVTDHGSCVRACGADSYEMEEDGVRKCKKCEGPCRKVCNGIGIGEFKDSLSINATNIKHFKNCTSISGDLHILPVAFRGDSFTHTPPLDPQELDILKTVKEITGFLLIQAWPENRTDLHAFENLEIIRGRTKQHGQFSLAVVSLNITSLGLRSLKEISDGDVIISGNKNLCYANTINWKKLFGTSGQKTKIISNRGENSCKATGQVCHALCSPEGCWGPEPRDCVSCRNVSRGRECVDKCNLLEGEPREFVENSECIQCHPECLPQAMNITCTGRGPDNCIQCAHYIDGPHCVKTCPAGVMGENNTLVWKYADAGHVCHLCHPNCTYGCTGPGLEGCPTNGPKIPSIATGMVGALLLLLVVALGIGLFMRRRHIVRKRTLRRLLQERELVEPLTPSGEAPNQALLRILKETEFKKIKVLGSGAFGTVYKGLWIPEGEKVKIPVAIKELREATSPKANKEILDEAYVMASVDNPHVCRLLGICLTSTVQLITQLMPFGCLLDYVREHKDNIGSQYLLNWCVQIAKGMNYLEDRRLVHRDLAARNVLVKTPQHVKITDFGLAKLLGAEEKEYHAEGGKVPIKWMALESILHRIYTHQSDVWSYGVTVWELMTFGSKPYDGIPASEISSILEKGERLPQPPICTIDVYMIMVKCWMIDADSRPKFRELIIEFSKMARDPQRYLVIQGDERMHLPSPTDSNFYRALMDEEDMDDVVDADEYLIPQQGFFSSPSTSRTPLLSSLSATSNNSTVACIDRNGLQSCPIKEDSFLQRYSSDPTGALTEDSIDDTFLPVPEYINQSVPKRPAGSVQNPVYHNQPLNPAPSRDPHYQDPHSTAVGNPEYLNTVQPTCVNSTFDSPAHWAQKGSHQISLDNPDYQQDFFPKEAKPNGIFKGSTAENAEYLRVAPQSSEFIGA
smiles,measurement,setting,value
"Cc1cc(C(=O)Nc2nc3cccc(Cl)c3n2[C@@H]2CCCCN(C(=O)/C=C/CN(C)C)C2)ccn1 [EGF816, (R,E)-N-(7-chloro-1-(1-(4-(dimethylamino)but-2-enoyl)azepan-3-yl)-1H-benzo[d]imidazol-2-yl)-2-methylisonicotinamide]",WT EGFR inhibition,[1],no indication of WT EGFR inhibition
same,efficacy in EGFR mutant cancer models,[2],significant efficacy
"CNC(=O)c1ccc(-c2cnc3ncc(Cc4ccc5ncccc5c4)n3n2)cc1F [INC280, 2-fluoro-N-methyl-4-[7-(quinolin-6-ylmethyl)imidazo[1,2-b][1,2,4]triazin-2-yl]benzamide]",inhibition of PD-L1 on tumor cells,[3],Significant inhibition
same,PD-L1 expression (mRNA),[4],Inhibition
same,surface expression of PD-L1,[5],significant downregulation
"Cc1cc(Nc2ncc(Cl)c(Nc3ccccc3S(=O)(=O)C(C)C)n2)c(OC(C)C)cc1C1CCNCC1 [LDK378, 5-chloro-N2-(2-isopropoxy-5-methyl-4-(piperidin-4-yl)-phenyl)-N4-[2-(propane-2-sulfonyl)-phenyl]-pyrimidine-2,4-diamine, reference compound]",PD-L1 mRNA,[6],Inhibition
same,inhibition of PD-L1 on tumor cells,[3],Significant inhibition
"COC(=O)N[C@@H](C)CNc1nccc(-c2cn(C(C)C)nc2-c2cc(Cl)cc(NS(C)(=O)=O)c2F)n1 [LGX818, methyl (S)-(1-((4-(3-(5-chloro-2-fluoro-3-(methylsulfonamido)phenyl)-1-isopropyl-1H-pyrazol-4-yl)pyrimidin-2-yl)amino)propan-2-yl)carbamate]",PD-L1 mRNA,[7],Downregulation
same,inhibition of PD-L1 on tumor cells,[3],Significant inhibition
"Cn1cnc2c(F)c(Nc3ccc(Br)cc3F)c(C(=O)NOCCO)cc21 [MEK162, 5-((4-bromo-2-fluorophenyl)amino)-4-fluoro-N-(2-hydroxyethoxy)-1-methyl-1H-benzo[d]imidazole-6-carboxamide]",inhibition of PD-L1 on tumor cells,[3],Significant inhibition
same,PD-L1 mRNA,[8],Downregulation

# Reference: patent US11344620B2, “Combination therapies” (Novartis AG, priority 2014, dated 2022)
